Measured values taken from US8404442B2, “Methods for identification of bone anabolic agents” (New York University, priority 2009, dated 2013).

How the values were obtained:
[1] = system: Sox2-depleted osteoblasts; assay: Rescue of colony forming ability of Sox2-depleted osteoblasts; assay type: cell-based, mouse; details: 10 μM SB431542
Protocol: For colony formation assay, 0.1×10^6 cells were plated per well in a cluster-6 well plate for 24 hours. The next day, the cells were infected with a retrovirus either encoding eGFP (MSCV-eGFP) or CRE (MSCV-CRE-eGFP) at an MOI of 10, in the presence of 8 μg/ml polybrene. Twenty-four (24) hours after infection, fresh medium was added to the plate and the cells were incubated for an additional 48 hours (72 hours total from the start of infection). The infected cells were then trypsinized and re-plated at a density of 1000 cells/well in a cluster-6 well plate. The plated were incubated for 7-10 days. Green colonies were visualized and counted under a fluorescence microscope. Colonies were fixed in 20% methanol for 15 minutes at room temperature, and counted after staining with 0.5% crystal violet in 20% methanol. We have developed a 96-well format, cell-based screen using two Sox2 foxed cell lines (F/F and F/-). […] The CellTiter-Blue® Cell Viability Assay is a fluorescence-based assay for measuring cell viability, and has an excellent Z′ factor^1. […] After one hour of incubation with the reagent, fluorescence was read using a Wallac Plate Reader (Perkinelmer, Waltham, Mass.). Z′ factor and z score for each plate was calculated for each cell line at different cell plating concentrations as described (28, 29). […]

iPSCs = details: refs (7,32); cited from earlier work

Compound: NC(=O)c1ccc(-c2nc(-c3ccc4c(c3)OCO4)c(-c3ccccn3)[nH]2)cc1 [SB431542]
- rescue of loss of colony forming ability [1]: able to rescue to loss of colony forming ability
- bypass of the requirement of Sox2 in reprogramming (iPSCs): bypass the requirement of Sox2 in the reprogramming of iPSCs
